Here are results for two compounds from ChEMBL document CHEMBL1147415, “Inhibition kinetics of carba- and C-fucosyl analogues of GDP-fucose against fucosyltransferase V: implication for the reaction mechanism” (Bioorg Med Chem Lett, 2004).

Assay [1] concerns the target T1, 4-galactosyl-N-acetylglucosaminide 3-alpha-L-fucosyltransferase FUT5 (Homo sapiens, UniProt Q11128).
T1 sequence (Q11128 whole entry): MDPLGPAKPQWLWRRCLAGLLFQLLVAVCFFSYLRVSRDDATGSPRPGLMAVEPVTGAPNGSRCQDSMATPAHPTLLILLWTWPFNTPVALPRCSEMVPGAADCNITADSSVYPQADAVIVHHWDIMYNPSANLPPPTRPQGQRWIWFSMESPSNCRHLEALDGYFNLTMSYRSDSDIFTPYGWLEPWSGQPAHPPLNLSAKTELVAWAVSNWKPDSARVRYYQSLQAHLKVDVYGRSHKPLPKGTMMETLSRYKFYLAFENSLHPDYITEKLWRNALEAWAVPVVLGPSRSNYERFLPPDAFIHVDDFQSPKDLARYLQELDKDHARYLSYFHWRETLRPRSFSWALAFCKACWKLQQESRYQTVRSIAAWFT
Nature of the assay: Inhibition of Fucosyltransferase 5 by the compound was evaluated; Competitive inhibition.

For assay [2], the target named is T1, 4-galactosyl-N-acetylglucosaminide 3-alpha-L-fucosyltransferase FUT5. Description: Inhibition of Fucosyltransferase 5 by the compound was evaluated; Weak competitive inhibition.

The structures appear in SMILES notation.

With `CC1CC(OP(=O)(O)OP(=O)(O)OC[C@H]2OC(n3cnc4c(O)nc(N)nc43)[C@H](O)[C@@H]2O)C(O)C(O)C1O` (some centres not stated), in assay [1], the affinity corresponds to a Ki of 67.1 µM.
In turn, `CC1OC(CP(=O)(O)OP(=O)(O)OC[C@H]2OC(n3cnc4c(=O)[nH]c(N)nc43)[C@H](O)[C@@H]2O)C(O)C(O)C1O` (some centres not stated) came in with a Ki in assay [2] of 889 µM.

As usually defined, the Ki is a measure of affinity in units of concentration, obtained from inhibition or displacement. Higher therefore signals weaker binding.
